“And” between values parts separate entries of the source, which are not always exact repeats. Equal entries are not always repeated. Where two headings read alike, the source gives them in different places.
Tests used:
[1] = Mouse plasma and brain pharmacokinetics, IP administration; assay type: in vivo; conditions: for concentration at 0.25 h / concentration at 0.5 h / concentration at 1 h / concentration at 2 h / concentration at 4 h: intraperitoneal; for AUC: read-out: AUC0.25–4 h brain; for AUC(0-t): read-out: AUC0.25–4 h plasma (AUCLAST)
Experimental: IACUC-approved protocols and animal welfare regulations outlined in the “Guide for the Care and Use of Laboratory Animals” were both followed during the pharmacokinetic evaluation of all compounds. In vivo analysis was performed by Pharmaron (IP administration, Irvine, CA) and Sai Life (IV administration, Hinjewadi Pune, Pune, India).
A group (n = 15) of fed, male C57BL/6 mice ∼6 to 8 weeks of age was injected IP with 10 mg/kg (1 mg/mL) of drug using 50% PEG400 in water as a vehicle. Samples were collected from the blood and brain at 0.25, 0.5, 1, 2, and 4 h after administration (3 mice per time point) following CO2 anesthesia. Collection from the brain was performed as follows: the mouse is terminally anaesthetized via rising concentration of CO2 and as much blood is removed as possible via cardiac puncture. The cardiac puncture is done by opening the chest cavity to expose the heart, cutting an incision in the right auricle using surgical scissors, and finally injecting a saline solution (∼10 mL) slowly into the left ventricle via a syringe. The mouse is placed head down at a 45° angle to facilitate blood removal. After perfusion, the skull is opened and the brain is removed. The whole brain is washed with saline, dried with surgical gauze, placed in tared tubes, and stored at −75 °C before analysis. For plasma sample preparation at the 0.25–2 h time points, 15 μL of blank solution, 30 μL of plasma sample, and 150 μL were added sequentially for protein precipitation. After centrifugation, 20 μL of the supernatant and 80 μL of collection buffer were combined, and thus, the final compound concentration in plasma (ng/mL) was corrected by multiplying by 5. For plasma sample preparation at the 4 h time point, 15 μL of blank solution, 30 μL of plasma sample, and 150 μL of acetonitrile were added sequentially for protein precipitation. For all brain sample preparation, 15 μL of blank solution, 30 μL of brain samples, and 150 μL of acetonitrile were added sequentially for protein precipitation. Brain samples were prepared by adding brain (g) to deionized water (mL) in a 1:4 ratio for homogenization. The mixtures were then vortexed for 30 s and subsequently centrifuged (∼4000 rpm) for 15 min. The supernatant was diluted 3-fold with water, and a 2 μL aliquot of the diluted supernatant was injected into a Shimadzu LC-30A LC-MS/MS system with a Phenomenex 2.6 μ PFP 100A column (30 mm × 2.1 mm) using verapamil as an internal standard. A gradient from 95% water (0.1% formic acid) to 95% ACN (0.1% formic acid) was run over 2 min at a flow rate of 0.6 mL/min. Brain and blood samples were collected at 15, 30, 60, 120, and 240 min from three C57Bl/6 mice at each time point. See Tables S6–S10 for 2i concentrations.

hGluA3-L531Y = experiment: Off-target, oocytes, GluA3; assay type: cell-based, human; conditions: 1 µM compound; 100 µM glutamate
Experimental: Analysis of Off-target Actions
Compound (S)-(-)-2i was tested at 1 µM for actions at glycine-activated GluN1/GluN3A (human GluN1-F484A,T518L/GluN3A referred to a GluN1-FA,TL/GluN3A) and rat GluN1-4a/GluN3B in the presence of 0.5 µM CGP-78608. cRNA injection ratios for GluN1/GluN3 were 1:2. Compound (S)-(-)- 2i was also tested for actions at AMPA (rat GluA1, rat GluA2, human GluA3-L531Y), kainate (rat GluK2), nicotinic acetylcholine (rat α7 and α4β2, cRNA ratio 1:1), GABAA (rat α1β2γ2S, cRNA ratio 1:1:1), GABAC (rat ρ1), glycine (rat α1), and purinergic (human P2X) receptors expressed in Xenopus oocytes. cRNA encoding the receptor subunits was synthesized from linear template cDNA using the mMessage mMachine kit (Ambion). Oocytes were injected with 1-5 ng cRNA in a 50 nL volume and incubated in Barth's solution at 15°C for 2-5 days prior to recording. GluK2-expressing oocyte were incubated in 1 mg/ml (10 µM) concanavalin-A for 10 min prior to recording. The cDNAs encoding GABAC and glycine subunits were provided by Dr. D. Weiss (University of Texas Health Science Center at San Antonio). cDNAs encoding nicotinic acetylcholine receptor subunits were provided by Drs. […]
GABA. […] Responses in presence of test compound were expressed as a percent of control. […]

[2] = male, C57BL/6, mouse, brain, 10 mg/kg IP
[3] = male, C57BL/6, mouse, brain, 10 mg/kg IP, read-out: Tmax brain
[4] = male, C57BL/6, mouse, plasma, 10 mg/kg IP
[5] = male, C57BL/6, mouse, plasma, 10 mg/kg IP, read-out: Tmax plasma
[6] = male, C57BL/6, mouse, plasma, 10 mg/kg IP, read-out: t1/2 plasma (converted)
[7] = male, mouse, plasma, 10 mg/kg IP, C57BL/6 mice

With O=C(O)CC(F)(F)C(=O)N1N=C(c2c(-c3ccc(Cl)cc3)c3ccccc3[nH]c2=O)CC1c1ccc(Cl)cc1 (stereo not drawn) [2i] the “AUC % Extrapolation brain” value ([1]; 10 mg/kg IP) was 58%, the “AUC % Extrapolation plasma” value ([1]; 10 mg/kg IP) was 15% and the AUCINF brain ([1]; 10 mg/kg IP) was 151 ng·h/g. The AUCLAST brain ([1]; 10 mg/kg IP) was 64 ng·h/g, the Cmax brain ([1]; 10 mg/kg IP) was 0.040 µM and 23 ng/g and the Cmax brain ([1]; 10 mg/kg IP, C57BL/6 mice) was 23 ng/mL. The “Brain/plasma Ratio, individual (Group 1-3)” value (“Brain/plasma Ratio” for short) ([1]; 10 mg/kg IP, 0.25 h) was 0.012 and 0.019, the “brain calculated concentration, individual (Group 1-3)” value (from here on “brain calculated concentration”) ([1]; 10 mg/kg IP, 0.25 h) was 17.9 ng/g and 22.6 ng/g and the “plasma concentration, individual (Group 1-3)” value (“plasma concentration” for short) ([1]; 10 mg/kg IP, 0.25 hr) was 1500.0 ng/mL and 1180.0 ng/mL. The “Brain/plasma Ratio” value ([1]; 10 mg/kg IP, 0.5 h) was 0.008 and 0.023 and 0.011, the “brain calculated concentration” value ([1]; 10 mg/kg IP, 0.5 h) was 29.1 ng/g and 18.7 ng/g and the “plasma concentration” value ([1]; 10 mg/kg IP, 0.5 hr) was 2620.0 ng/mL and 1260.0 ng/mL and 1740.0 ng/mL. For the same molecule, the “brain calculated concentration” value ([1]; 10 mg/kg IP, 1 h) was 16.5 ng/g and 14.9 ng/g, the “plasma concentration” value ([1]; 10 mg/kg IP, 1 hr) was 1270.0 ng/mL and 1170.0 ng/mL and the “Brain/plasma Ratio” value ([1]; 10 mg/kg IP, 2 h) was 0.016 and 0.022. For the same molecule, the “brain calculated concentration” value ([1]; 10 mg/kg IP, 2 h) was 18.0 ng/g and 24.3 ng/g, the “plasma concentration” value ([1]; 10 mg/kg IP, 2 hr) was 1140.0 ng/mL and 1080.0 ng/mL and the “Brain/plasma Ratio” value ([1]; 10 mg/kg IP, 4 h) was 0.058 and 0.050 and 0.022. The “brain calculated concentration” value ([1]; 10 mg/kg IP, 4 h) was 10.4 ng/g and 12.8 ng/g, the “plasma concentration” value ([1]; 10 mg/kg IP, 4 hr) was 163.0 ng/mL and 208.0 ng/mL and 585.0 ng/mL and the “brain concentration in brain compartment” value ([1]; IP administration) was 40 nM. The “brain concentration, upper limit if restricted to extracellular space” value ([1]; IP administration) was at most 200 nM, the Kp at 1 h ([1]; male, C57BL/6, mouse, brain and plasma, ip, 10 mg/kg, 10 mg/kg IP, 1 h, read-out: Brain/plasma Ratio, Mean) was 0.013 and the Kp at 2 h ([1]; male, C57BL/6, mouse, brain and plasma, ip, 10 mg/kg, 10 mg/kg IP, 2 h, read-out: Brain/plasma Ratio, Mean) was 0.018. It also gave a Kp at 2 h ([1]; male, C57BL/6, mouse, brain and plasma, ip, 10 mg/kg, 10 mg/kg IP, 2 h, read-out: Brain/plasma Ratio, individual (Group 1-3)) of 0.015, a Kp at 4 h ([1]; male, C57BL/6, mouse, brain and plasma, ip, 10 mg/kg, 10 mg/kg IP, 4 h, read-out: Brain/plasma Ratio, Mean) of 0.043 and a concentration at 0.25 h ([1]; male, C57BL/6, mouse, brain, 10 mg/kg, 10 mg/kg IP, 0.25 h, read-out: brain calculated concentration, Mean) of 17.5 ng/g. For the same molecule, the concentration at 0.25 h ([1]; male, C57BL/6, mouse, brain, 10 mg/kg, 10 mg/kg IP, 0.25 h, read-out: brain calculated concentration, individual (Group 1-3)) was 12 ng/g, the concentration at 0.5 h ([1]; male, C57BL/6, mouse, brain, 10 mg/kg, 10 mg/kg IP, 0.5 h, read-out: brain calculated concentration, Mean) was 22.8 ng/g and the concentration at 0.5 h ([1]; male, C57BL/6, mouse, brain, 10 mg/kg, 10 mg/kg IP, 0.5 h, read-out: brain calculated concentration, individual (Group 1-3)) was 20.6 ng/g. It also gave a concentration at 1 h ([1]; male, C57BL/6, mouse, brain, 10 mg/kg, 10 mg/kg IP, 1 h, read-out: brain calculated concentration, Mean) of 14.6 ng/g, a concentration at 1 h ([1]; male, C57BL/6, mouse, brain, 10 mg/kg, 10 mg/kg IP, 1 h, read-out: brain calculated concentration, individual (Group 1-3)) of 12.4 ng/g and a concentration at 2 h ([1]; male, C57BL/6, mouse, brain, 10 mg/kg, 10 mg/kg IP, 2 h, read-out: brain calculated concentration, Mean) of 19.4 ng/g. It also gave a concentration at 2 h ([1]; male, C57BL/6, mouse, brain, 10 mg/kg, 10 mg/kg IP, 2 h, read-out: brain calculated concentration, individual (Group 1-3)) of 15.9 ng/g, a concentration at 4 h ([1]; male, C57BL/6, mouse, brain, 10 mg/kg, 10 mg/kg IP, 4 h, read-out: brain calculated concentration, Mean) of 10.9 ng/g and a concentration at 4 h ([1]; male, C57BL/6, mouse, brain, 10 mg/kg, 10 mg/kg IP, 4 h, read-out: brain calculated concentration, individual (Group 1-3)) of 9.5 ng/g. For the same molecule, the Kp at 0.25 h ([1]; male, C57BL/6, mouse, brain/plasma, ip, 10 mg/kg, 10 mg/kg IP, 0.25 h, read-out: Brain/plasma Ratio, Mean) was 0.014, the Kp at 0.25 h ([1]; male, C57BL/6, mouse, brain/plasma, ip, 10 mg/kg, 10 mg/kg IP, 0.25 h, read-out: Brain/plasma Ratio, individual (Group 1-3)) was 0.01 and the Kp at 0.5 h ([1]; male, C57BL/6, mouse, brain/plasma, ip, 10 mg/kg, 10 mg/kg IP, 0.5 h, read-out: Brain/plasma Ratio, Mean) was 0.014. For the same molecule, the Kp at 1 h ([1]; male, C57BL/6, mouse, brain/plasma, ip, 10 mg/kg, 10 mg/kg IP, 1 h, read-out: Brain/plasma Ratio, individual (Group 1-3)) was 0.015, the Kp ([1]; male, C57BL/6, mouse, brain/plasma, ip, 10 mg/kg, 10 mg/kg IP, read-out: Ratio_AUCLAST (Brain/plasma)) was 0.02 and the AUC [1, 2] was 64 ng·h/mL. It also gave a Tmax [1, 3] of 0.5 h, a half-life ([1]; male, C57BL/6, mouse, brain, 10 mg/kg IP, read-out: t1/2 brain) of over 4 h and a concentration at 0.25 h ([1]; male, C57BL/6, mouse, plasma, 10 mg/kg, 10 mg/kg IP, 0.25 hr, read-out: plasma concentration, Mean) of 1310 ng/mL. For the same molecule, the concentration at 0.25 h ([1]; male, C57BL/6, mouse, plasma, 10 mg/kg, 10 mg/kg IP, 0.25 hr, read-out: plasma concentration, individual (Group 1-3)) was 1250 ng/mL, the concentration at 0.5 h ([1]; male, C57BL/6, mouse, plasma, 10 mg/kg, 10 mg/kg IP, 0.5 hr, read-out: plasma concentration, Mean) was 1870 ng/mL and the concentration at 1 h ([1]; male, C57BL/6, mouse, plasma, 10 mg/kg, 10 mg/kg IP, 1 hr, read-out: plasma concentration, Mean) was 1150 ng/mL. The concentration at 1 h ([1]; male, C57BL/6, mouse, plasma, 10 mg/kg, 10 mg/kg IP, 1 hr, read-out: plasma concentration, individual (Group 1-3)) was 1020 ng/mL, the concentration at 2 h ([1]; male, C57BL/6, mouse, plasma, 10 mg/kg, 10 mg/kg IP, 2 hr, read-out: plasma concentration, Mean) was 1090 ng/mL and the concentration at 2 h ([1]; male, C57BL/6, mouse, plasma, 10 mg/kg, 10 mg/kg IP, 2 hr, read-out: plasma concentration, individual (Group 1-3)) was 1060 ng/mL. For the same molecule, the concentration at 4 h ([1]; male, C57BL/6, mouse, plasma, 10 mg/kg, 10 mg/kg IP, 4 hr, read-out: plasma concentration, Mean) was 319 ng/mL, the Cmax [1, 4] was 3300 nM and the AUC(0-t) [1, 4] was 3850 ng·h/mL. The AUC(0-inf) ([1]; male, C57BL/6, mouse, plasma, 10 mg/kg IP, read-out: AUCINF plasma) was 4550 ng·h/mL, the Tmax [1, 5] was 0.5 h and the half-life [1, 6] was 1.5 h. The Cmax [1, 7] was 1870 ng/mL.

With O=C(O)CC(F)(F)C(=O)N1N=C(c2c(-c3ccc(Cl)cc3)c3ccccc3[nH]c2=O)C[C@H]1c1ccc(Cl)cc1 [(S)-(−)-2i] the “% control hGluA3-L531Y” value (hGluA3-L531Y) was 105 ± 1.2%.

In the case of NC(=O)CC(F)(F)C(=O)N1N=C(c2c(-c3ccc(Cl)cc3)c3ccccc3[nH]c2=O)CC1c1ccc(Cl)cc1 (stereo not drawn) [2k], the Cmax brain ([1]; 10 mg/kg IP, C57BL/6 mice) is reported as 13 ng/mL, the AUC [1, 2] is reported as 41 ng·h/mL and the Tmax [1, 3] is reported as 4 h. The AUC(0-t) [1, 4] was 2270 ng·h/mL, the Tmax [1, 5] was 0.5 h and the half-life [1, 6] was 4.9 h. It also gave a Cmax [1, 7] of 815 ng/mL.
